Patent EP4806890A1, “CRYSTALLINE COMPOUND OR BASIC SALT THEREOF, PREPARATION METHOD THEREFOR, AND USE THEREOF” (Abbisko Therapeutics Co., Ltd., priority 2023, dated 2025)
Entries after “also recorded” stand apart in the source; their conditions may differ. Structures can show the parent of a compound that is named as a salt. One block for each compound: values may come before it.

Tests used:
[1] = Stability determination (thermal stability and photostability, HPLC purity, appearance, XRPD); format: physicochemical; settings: for XRPD: crystalline form found
Procedure: (§1) The stability and solubility of the crystalline free form of the compound of formula (I) or the basic salt thereof of the present application were determined by HPLC.
An appropriate amount of the sample was placed in a vial and left to stand at 50 °C, 80 °C or 50 °C & 75% RH (open) for 7 days to evaluate thermal stability. An appropriate amount of the sample was placed in a transparent vial, […] evaluation under conditions of overall near-ultraviolet energy of 1.2 * 10^6 Lux·hr and no less than 200 W·hr/m2.

[2] = Solubility determination (equilibrium solubility, 24 hrs stirring at room temperature, HPLC); format: physicochemical; settings: for Equilibrium solubility: target concentration 2000 µg/mL, 24 hrs; for pH24 hrs: pH of the filtrate after 24 hrs
Procedure: as §1
The desired amount of the compound was weighed into a glass vial, and the desired amount of a vehicle was added. A stir bar was added to the vial, and the mixture was stirred at room temperature for 24 hrs. After 24 hrs, the appearance of the sample was observed. An appropriate amount of the sample was filtered through a PVDF 0.45 µm filter membrane, and the filtrate was collected. The pH value of the filtrate was determined, and the sample was diluted with MeOH. The diluted sample was injected into an HPLC system to determine the concentration.

[3] = Hygroscopic behavior test by dynamic vapor sorption (DVS); format: physicochemical; settings: for hygroscopicity (in words): DVS, 25 °C
Excerpt: The experimental method of characterizing the crystalline free form of the compound of formula (I) or the basic salt thereof using dynamic vapor sorption (DVS) is as follows: a small amount of the crystalline sample was placed in a precision sample tray that was compatible with the instrument; after the sample was loaded, the sample tray was placed into the instrument for analysis. In this patent, the instruments used for dynamic vapor sorption were all the DVS Intrinsic plus model, and the following experimental parameters were set: nitrogen was used as the carrier gas, a constant temperature of 25 °C was set, the rate of mass percentage change over a unit of time (dm/dt) = 0.002%/min was used as a criterion for determining if equilibrium is reached, and the program humidity change cycle was set to 50-95-0-95-50% RH; within the range of 0-90% RH, a change of 10% RH was taken as a step, and within the range of 90% RH-95% RH, a change of 5% RH was taken as a step.
In the present invention, the hygroscopic weight increases (hygroscopic weight increase/weight before hygroscopy * 100%) of various crystalline forms under various relative humidity conditions were determined using the dynamic vapor sorption method, and the hygroscopicity of different crystalline compounds was evaluated.

PD-1/PD-L1 = PD-1/PD-L1 (Homo sapiens, UniProt Q9NZQ7); settings: statement of the background, WO2019149183A1; cited from earlier work
PD-1/PD-L1, sequence (Q9NZQ7 19-238 limits assumed): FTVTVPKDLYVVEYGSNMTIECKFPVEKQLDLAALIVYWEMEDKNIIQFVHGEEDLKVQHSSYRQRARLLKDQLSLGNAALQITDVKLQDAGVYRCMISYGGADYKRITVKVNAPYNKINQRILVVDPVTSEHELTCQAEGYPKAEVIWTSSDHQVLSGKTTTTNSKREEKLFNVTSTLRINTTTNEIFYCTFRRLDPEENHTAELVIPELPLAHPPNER

[4] = Later pharmaceutical research on the trifluoroacetate freeze-dried amorphous compound of WO2019149183A1 (solid-state properties); format: physicochemical
T cells = settings: statement of the background, WO2019149183A1; cited from earlier work
[5] = Aluminum foil light exposure control, 9.2 days
[6] = Brown vial light exposure control, 9.2 days
[7] = Transparent light exposure, 9.2 days
[8] = pH 4.7, 50 mM acetic acid buffer
[9] = pH 6.8, 50 mM phosphoric acid buffer
[10] = Relative humidity 0.0 % at 25 °C
[11] = Relative humidity 10.0 % at 25 °C
[12] = Relative humidity 20.0 % at 25 °C
[13] = Relative humidity 30.0 % at 25 °C
[14] = Relative humidity 40.0 % at 25 °C
[15] = Relative humidity 50.0 % at 25 °C
[16] = Relative humidity 60.0 % at 25 °C
[17] = Relative humidity 70.0 % at 25 °C
[18] = Relative humidity 80.0 % at 25 °C

Appearance ([1]; 50 °C, 7 days): White powder | Purity (%) ([1]; 50 °C, 7 days): 99.45% | Appearance ([1]; 50 °C/75%RH, 7 days): White powder | Purity (%) ([1]; 50 °C/75%RH, 7 days): 99.46% | Appearance ([1]; 80 °C, 7 days): White powder | Purity (%) ([1]; 80 °C, 7 days): 99.34% | Appearance [1, 5]: White powder | Purity (%) [1, 5]: 99.51% | Appearance [1, 6]: White powder | Purity (%) [1, 6]: 99.50% | Appearance ([1]; Initial, 0 days): White powder | Purity (%) ([1]; Initial, 0 days): 99.38% | Appearance [1, 7]: White powder | Purity (%) [1, 7]: 99.22% | XRPD ([1]; 50 °C, 7 days): Crystalline form A of disodium salt | XRPD ([1]; 50 °C/75%RH, 7 days): Crystalline form A of disodium salt | XRPD ([1]; 80 °C, 7 days): Crystalline forms A + B of disodium salt | XRPD [1, 5]: Crystalline form A of disodium salt | XRPD [1, 6]: Crystalline form A of disodium salt | XRPD ([1]; Initial, 0 days): Crystalline form A of disodium salt | XRPD [1, 7]: Crystalline forms A + B of disodium salt | Equilibrium solubility ([2]; FaSSGF): 22 µg/mL | Equilibrium solubility ([2]; FaSSIF): 303 µg/mL | Equilibrium solubility ([2]; FeSSIF): > 2000 µg/mL | Equilibrium solubility ([2]; Water, room temperature): > 2000 µg/mL | Equilibrium solubility ([2]; pH 1.2, HCl 100 mM): 1120 µg/mL | Equilibrium solubility [2, 8]: 25 µg/mL | Equilibrium solubility [2, 9]: 34 µg/mL | pH24 hrs ([2]; FaSSGF): 1.73 | pH24 hrs ([2]; FaSSIF): 6.93 | pH24 hrs ([2]; FeSSIF): 7.95 | pH24 hrs ([2]; Water): 9.61 | pH24 hrs ([2]; pH 1.2, HCl 100 mM): 1.01 | pH24 hrs [2, 8]: 4.61 | pH24 hrs [2, 9]: 6.88 | Hygroscopic weight increase (%) [3, 10]: 0.00% | Hygroscopic weight increase (%) [3, 11]: 2.40% | Hygroscopic weight increase (%) [3, 12]: 7.45% | Hygroscopic weight increase (%) [3, 13]: 9.28% | Hygroscopic weight increase (%) [3, 14]: 10.62% | Hygroscopic weight increase (%) [3, 15]: 11.64% | Hygroscopic weight increase (%) [3, 16]: 12.43% | Hygroscopic weight increase (%) [3, 17]: 13.25% | Hygroscopic weight increase (%) [3, 18]: 14.59% | crystalline form changes after DVS testing [3]: no crystalline form changes | weight increased ([3]; at 80% RH): more than 10%
Compound: Cc1c(NC(=O)c2cc(C3CC3)c(CN3CCCC[C@H]3C(=O)O)cn2)cccc1-c1cccc(NC(=O)c2cc(C3CC3)c(CN3CCCC[C@H]3C(=O)O)cn2)c1C [crystalline form A of disodium salt hydrate] [(2S,2'S)-1,1'-(((((2,2'-dimethyl-[1,1'-biphenyl]-3,3'-diyl)bis(azanediyl))bis(carbonyl))bis(4-cyclopropylpyridine-6,3-diyl))bis(methylene))bis(piperidine-2-carboxylic acid)]
physical and chemical stability (in words) ([1]; 50 °C, 50 °C/75% RH or brown light exposure): relatively high physical and chemical stability | crystalline form transformation (in words) ([1]; high temperature and light exposure): underwent crystalline form transformation; also recorded: undergoes crystalline form transformation | chemical stability (in words) ([1]; various stability testing conditions, incl. high temperature and light exposure): good chemical stability; also recorded: relatively high chemical stability

hygroscopicity (in words) [4]: very hygroscopic | solubility (in words) [4]: poor solubility
Compound: Cc1c(NC(=O)c2cc(C3CC3)c(CN3CCCC[C@H]3C(=O)O)cn2)cccc1-c1cccc(NC(=O)c2cc(C3CC3)c(CN3CCCC[C@H]3C(=O)O)cn2)c1C [compound of formula (I), (2S,2'S)-1,1'-(((((2,2'-dimethyl-[1,1'-biphenyl]-3,3'-diyl)bis(azanediyl))bis(carbonyl))bis(4-cyclopropylpyridine-6,3-diyl))bis(methylene))bis(piperidine-2-carboxylic acid)]
inhibitory effect on the protein interaction of PD-1/PD-L1 (PD-1/PD-L1): strong inhibitory effect | activation of T cells at the cellular level (T cells): enhance or restore the activation of T cells

Appearance ([1]; 50 °C, 11 days): White powder | Purity (%) ([1]; 50 °C, 11 days): 99.36% | Appearance ([1]; 50 °C/75%RH, 11 days): White powder | Purity (%) ([1]; 50 °C/75%RH, 11 days): 99.36% | Appearance ([1]; 80 °C, 11 days): White powder | Purity (%) ([1]; 80 °C, 11 days): 99.22% | Appearance [1, 5]: White powder | Purity (%) [1, 5]: 99.39% | Appearance ([1]; Initial, 0 days): White powder | Purity (%) ([1]; Initial, 0 days): 99.44% | Appearance [1, 7]: White powder | Purity (%) [1, 7]: 99.43% | XRPD ([1]; 50 °C, 11 days): Free-form crystalline form F | XRPD ([1]; 50 °C/75%RH, 11 days): Free-form crystalline form F | XRPD ([1]; 80 °C, 11 days): Free-form crystalline form F | XRPD [1, 5]: Free-form crystalline form F | XRPD ([1]; Initial, 0 days): Free-form crystalline form F | XRPD [1, 7]: Free-form crystalline form F | Equilibrium solubility ([2]; FaSSGF): 117.15 µg/mL | Equilibrium solubility ([2]; FaSSIF): 306.56 µg/mL | Equilibrium solubility ([2]; FeSSIF): 1723.16 µg/mL | Equilibrium solubility ([2]; Water, room temperature): 69.47 µg/mL | Equilibrium solubility ([2]; pH 1.2, HCl 100 mM): 244.49 µg/mL | Equilibrium solubility [2, 8]: 67.33 µg/mL | Equilibrium solubility [2, 9]: 61.01 µg/mL | pH24 hrs ([2]; FaSSGF): 1.58 | pH24 hrs ([2]; FaSSIF): 6.42 | pH24 hrs ([2]; FeSSIF): 4.99 | pH24 hrs ([2]; Water): 5.52 | pH24 hrs ([2]; pH 1.2, HCl 100 mM): 1.15 | pH24 hrs [2, 8]: 4.68 | pH24 hrs [2, 9]: 6.93 | hygroscopicity (in words) [3]: moderate hygroscopicity | hygroscopicity (in words) ([3]; listed as crystalline form F): moderately hygroscopic | Hygroscopic weight increase (%) [3, 10]: 0.00% | Hygroscopic weight increase (%) [3, 11]: 0.18% | Hygroscopic weight increase (%) [3, 12]: 0.38% | Hygroscopic weight increase (%) [3, 13]: 0.60% | Hygroscopic weight increase (%) [3, 14]: 0.84% | Hygroscopic weight increase (%) [3, 15]: 1.14% | Hygroscopic weight increase (%) [3, 16]: 1.54% | Hygroscopic weight increase (%) [3, 17]: 2.04% | Hygroscopic weight increase (%) [3, 18]: 2.55% | Hygroscopic weight increase (%) ([3]; Relative humidity 90.0 % at 25 °C): 3.28% | crystalline form changes after DVS testing [3]: no crystalline form changes
Compound: Cc1c(NC(=O)c2cc(C3CC3)c(CN3CCCC[C@H]3C(=O)O)cn2)cccc1-c1cccc(NC(=O)c2cc(C3CC3)c(CN3CCCC[C@H]3C(=O)O)cn2)c1C [free-form crystalline form F, (2S,2'S)-1,1'-(((((2,2'-dimethyl-[1,1'-biphenyl]-3,3'-diyl)bis(azanediyl))bis(carbonyl))bis(4-cyclopropylpyridine-6,3-diyl))bis(methylene))bis(piperidine-2-carboxylic acid)]
physical and chemical stability (in words) ([1]; 50 °C, 50 °C/75% RH (open), 80 °C for 7 days and photostress for 10 days): extremely high physical and chemical stability | solubility (in words) ([2]; various pH conditions, buffers and biological medium solutions): extremely significantly improved solubility
